Experimental data published in PMC12122562, “Phase 1 studies of the indenoisoquinolines LMP776 and LMP744 in patients with solid tumors and lymphomas” (Cancer Chemotherapy and Pharmacology, 2025).

Columns and labels:
[1] = system: γH2AX; experiment: qIF of paired tumor biopsies: nuclear γH2AX; format: in vivo, human
Description: The LMP744 protocol collected pre-treatment (baseline) and on-treatment paired biopsies from patients in the expansion cohort. Core needle tumor biopsies (18-gauge) were collected and flash-frozen at point of collection per NCI SOPs (https://dctd.cancer.gov/ResearchResources/biomarkers/docs/par/SOP340507_Biopsy_Frozen.pdf) as described to preserve labile post-translational modifications such as phosphorylation. Biopsy pairs were thawed in formalin, fixed in paraffin embedded together with control tissues following NCI SOP340550 (https://dctd.cancer.gov/ResearchResources/biomarkers/DDR3/SOP340550_Biopsy_Section_Testis_Jejunum_Controls.pdf). TOP1 and TOP1cc were measured with a cocktail containing custom-conjugated rabbit monoclonal antibody anti-TOP1-DIG (Abcam, EPR5376 (2)) and mouse monoclonal antibody anti-TOP1cc (clone 1.1A [34, 35], EMD Millipore) that were detected with reporter secondary antibodies AlexaFluor-647 IgG fraction monoclonal mouse anti-digoxin (Jackson ImmunoResearch) and goat/anti-mouse AlexaFluor-488, respectively. Phosphorylated KAP1 (pKAP1, phosphorylated at S824) was measured using custom-conjugated pKAP1-pS824-DNP (Abcam, EPR5248) and detected with AlexaFluor-488 conjugated with anti-dinitrophenyl-KLH rabbit IgG Antibody Fraction (DNP-488, ThermoFisher). […] TOP1, γH2AX, pNBS1, and pKAP1 were measured as the percentage of DAPI-stained tumor cell nuclear area that was positive for the biomarker (% NAP); RAD51 [19] and TOP1cc was measured as a function of the percentage of nuclei with ≥ 5 foci (RAD51) or ≥ 19 foci (TOP1cc). Apoptosis was measured using a validated IFA of tumor cells positive for both cCasp3 blebbing in the cytoplasm and γH2AX in the nucleus. Anti-SLFN11 rabbit monoclonal antibody (Cell Signaling Technology, clone D8W1B) was detected by immunohistochemistry (IHC) using Bond Polymer Detection kit (Leica) and scanned in 20X widefield Aperio (Leica), and the distribution of staining intensity of tumor cell nuclei graded as 0, 1 + , 2 + or 3 + was converted into an H-score. […]

[2] = system: advanced, refractory solid tumors or lymphomas; experiment: Phase 1 trial of LMP776: tumor response (RECIST v1.1), cycles completed; format: in vivo, human
Experimental: Tumor responses were evaluated by serial CT scans according to RECIST v1.1 criteria. CT scans were performed every other cycle during the first year, then every 3 cycles after the first year. Toxicities associated with LMP776 were evaluated according to criteria specified in CTCAE version 4.0; toxicities associated with LMP744 were evaluated according to the criteria specified in CTCAE version 4.03 (on or before March 31, 2018) or version 5.0 (on or after April 1, 2018). Criteria for all versions can be found at https://ctep.cancer.gov/protocolDevelopment/electronic_applications/ctc.htm. Any patient who received a dose of either agent was considered eligible for toxicity evaluation.

SMILES | γH2AX, cohort mean treatment effect ([1]; 6 patients at MTD, P = 0.1715) | Nuclear γH2AX in tumor cells on treatment ([1]; patient 29 (SCLC, cPR) only, MTD, C1D2 2–4 h after dosing) | Pharmacodynamic responses in tumor biopsies ([1]; patient with cPR) | Objective responses ([2]; RECIST v1.1, n = 34) | Best response ([2]; in vivo) | Longest duration of SD ([2]; patient 45, pancreatic cancer)
COc1cc2c3c(n(CCCNCCO)c(=O)c2cc1OC)-c1cc2c(cc1C3=O)OCO2 [LMP744] | overall lack of treatment effect within the cohort | above 4 % NAP | increased RAD51, phosphorylated KAP1 (pKAP1), γH2AX, and cleaved caspase-3 (cCasp3) |  |  | 
COc1cc2c3c(n(CCCn4ccnc4)c(=O)c2cc1OC)-c1cc2c(cc1C3=O)OCO2 [LMP776] |  |  |  | no objective responses were measured | stable disease | 9 cycles
